Key:
mammalian cell vero6 = experiment: Anti-COVID activity: cell survival (cytotoxicity); conditions: vero6 cells infected with COVID-19 virus
coliforms and E. coli = conditions: 25 mg/ml, raw river water; cited from earlier work
[1] = test system: 29 Gram-positive and 29 Gram-negative bacteria, as well as 66 fungi; conditions: independent of pH and temperature; cited from earlier work
[2] = temperate and tropical climates; cited from earlier work
[3] = test system: microbial load of Salacia extract; experiment: % microbial load reduction in Salacia extract; conditions: for Total cfu/g: untreated 21000
Source text: Example 4: % Microbial Load Reduction in Ayurvedic Herbs and Extracts by Using Sodium Dichloroisocyanurate (NaDCC)

[4] = Stability of NaDCC solution (HDPE bottle); conditions: tables 6 to 9
[5] = Cyanuric acid and free available chlorine in lung homogenate after NaDCC DPI; conditions: administered as a DPI
Source text: Further, the so obtained NaDCC DPI was clinically assessed by determining the amount of cyanuric acid in the tissues.

Bacillus licheniformis = experiment: Susceptibility of bacteria isolated from Garcinia cambogia extract to NaDCC; assay type: cell-based
Method: (§1) The bacteria (Bacillus licheniformis, and Bacillus paralicheniformis) and fungus (Aspergillus sps) isolated from the Salacia reticulata and bacteria Bacillus licheniformis isolated from Garcinia cambogia extract was tested for susceptibility for the sensitivity towards NaDCC.

COVID-19 virus = experiment: Anti-COVID activity: inhibition of virus replication; conditions: Severe acute respiratory syndrome coronavirus 2, read-out: Inhibition of the virus replication
Aspergillus sps = experiment: Susceptibility of fungus isolated from Salacia reticulata to NaDCC; assay type: cell-based
Method: as §1

[6] = test system: Bacillus licheniformis, and Bacillus paralicheniformis; experiment: Susceptibility of bacteria isolated from Salacia reticulata to NaDCC; assay type: cell-based
Method: as §1

Escherichia coli = conditions: cited from earlier work
Bacterial membrane = conditions: cited from earlier work
[7] = NaDCC 0.05% to 5% mixed with Salacia extract (inference)

SMILES | Survival of cell (FIG. 3B) (mammalian cell vero6) | Reduction of viable bacteria (coliforms and E. coli) | Antimicrobial activity [1] | Shelf life [2] [years] | Total cfu/g ([3]; 0.02 g NaDCC in 10 g Salacia extract (0.2%), batch RDP/SR/073) [cfu/g] | Total cfu/g ([3]; 0.04 g NaDCC in 10 g Salacia extract (0.4%), batch RDP/SR/074) [cfu/g] | % microbial reduction ([3]; 0.2% of input extract, batch RDP/SR/073) [%] | % microbial reduction ([3]; 0.4% of input extract, batch RDP/SR/074) [%] | Reduction in bacterial counts [3, 7] [logs] | Reduction of bacterial load [3, 7] [%] | Stability in acetic acid and cyanuric acid as a solution (inference) [4] | Metabolism / tissue accumulation [5] | Antibacterial activity (FIG. 2) (Bacillus licheniformis) | inhibition at 600 ppm (COVID-19 virus) [%] | Anti-fungal activity (FIG. 1) (Aspergillus sps) | Antibacterial activity (FIG. 1) [6] | HOCl concentration that completely inhibited cell division (Escherichia coli; Escherichia coli) [µM] | IC50 (Escherichia coli; read-out: HOCl required for 50% inhibition of bacterial growth, 5×10^8 Escherichia coli/ml) [µM] | Concentration below which bacterial membrane disruption and release of cell contents is not observed (Bacterial membrane)
O=c1[n-]c(=O)n(Cl)c(=O)n1Cl.[Na+] [NaDCC, Sodium 3,5-dichloro-2,4,6-trioxo-1,3,5-triazinan-1-ide] | increase the survival of cell | 1.8-2.8 logs | effective | 5 | <10 | <10 | >99 | >99 | 4 | 99.99 | stable | metabolized fast with a short half-life and not accumulated in tissues | effective antibacterial activity | > 100 | anti-fungal activity | effective antibacterial activity | – | – | –
OCl [HOCl, Hypochlorous acid] | – | – | – | – | – | – | – | – | – | – | – | – | – | – | – | – | 50 | 20 | below 5 mM
